# Columns and labels:
# Type in all cases: in vivo, Lewis rats
# [1] = test system: sciatic nerve crush injury; assay: Collagen sheet covering 15 mm to 25 mm distal to injury site, evaluation 12 hours after crush injury (NETs, macrophages); settings: n=3; for NETs in the epineurium (CitH3 positive area) / macrophages accumulated in the nerve parenchyma: 20 mm distal
# Excerpt: (§1) Anesthetized Lewis rats (males, 12-16 weeks old) or C57BL/6 mice (males, 8-10 weeks old) were placed in the prone position and a longitudinal skin incision was made from the left buttock to the distal left thigh to expose the entire sciatic nerve. Crush injuries were created with micro mosquito forceps (Fine Science Tools, No. 13010-12). An 8-0 Nylon thread was applied to the epineurium at the crush injury for marking, and the incision was closed.
# (§2) After a predetermined time had elapsed from the creation of the crush injury, the right atrial appendage of the animals was incised under anesthesia to release the blood, and a PBS solution was poured into the left heart to remove the blood. After transcardial perfusion and fixation with 4% paraformaldehyde-added PBS, the sciatic nerve was collected.
# (§3) Sciatic nerves collected from animals were fixed in 4% PFA at 4° C. overnight and then transferred to 30% Sucrose/PB solution and allowed to stand for 24 hours or longer. Longitudinal sciatic nerve sections of 10 μm thickness, or in the case of mice, transverse sections at predetermined locations, were prepared using a cryostat. The sections were blocked in TBS (pH 8.4) containing 5% Normal horse serum (Thermo Fisher Scientific, Waltham, MA) and 0.25% Triton X-100 (Sigma-Aldrich, St. Louis, MO) for 1 hour, and then immersed in TBS containing primary antibody at 4° C. overnight and in TBS containing secondary antibody at room temperature for 1 hour for staining. After washing with TBS, counterstaining was performed with DAPI. After staining, tissues were observed using a fluorescence microscope BZ-X710 (KEYENCE). Image analysis was performed using Image J (Schneider et al., 2012).
# Crush injuries were created in the sciatic nerve of rats. Ten hours after injury creation, the sciatic nerves from 15 mm to 25 mm distal to the injury site were wrapped with the collagen-based artificial skin PELNAC (registered trademark) (Smith & Nephew; hereafter also referred to as sheets or collagen sheets) impregnated with either 50 μl of PBS containing 0.3 mg of the PAD4 inhibitor Cl-amidine (Cayman CHEMICAL #10599), 50 μl of PBS containing 200 U of DNase I (Nippon Gene #314-08071), or 50 μl of PBS (control). The sheets were suture-fixed with 8-0 nylon and placed for 2 hours (n=3 in each group). Twelve hours after injury creation, the sciatic nerves were collected, their longitudinal sections at 20 mm distal to the injury site were prepared and immunohistochemical staining for CitH3, Ly-6G, and CD68 was performed. The epineural area was observed and the percentage of area stained for CitH3 in the total area of the field of view was calculated. The number of macrophages per unit area of the nerve parenchyma was quantified.
# Crush injuries were created in the sciatic nerve of rats. Ten hours after injury creation, the sciatic nerves from 15 mm to 25 mm distal to the injury site were wrapped with collagen sheets impregnated with either 50 μl of 1% DMSO containing 500 μg of the MIF inhibitor iso-1 (Abcam, Cat ab142140), or 50 μl of 1% DMSO. The sheets were suture-fixed with 8-0 nylon and placed for 2 hours (n=3 in each group). Twelve hours after injury creation, the sciatic nerves were collected, their longitudinal sections were prepared, and immunohistochemical staining for CitH3, Ly-6G, and CD68 was performed. The epineural area was observed and the percentage of area stained for CitH3 in the total area of the field of view was calculated. The number of macrophages per unit area of the nerve parenchyma was quantified.
# Crush injuries were created in the sciatic nerve of rats. Ten hours after injury creation, the sciatic nerves from 15 mm to 25 mm distal to the injury site were wrapped with collagen sheets impregnated with either 50 μl of PBS containing 500 μg of the CXCR4 inhibitor AMD3100 (Abcam #10599), or 50 μl of PBS. The sheets were suture-fixed with 8-0 nylon and placed for 2 hours (n=3 in each group).
# [2] = test system: sciatic nerve crush injury; assay: Collagen sheet covering 5 mm to 15 mm distal to injury site, evaluation 7 days after crush injury (axonal regeneration); settings: sheet with 500 μg inhibitor in 50 μl 1% DMSO, placed 2 hours; 7 days after injury; vs control sheet; n=1; FIG. 37
# Excerpt: as §1, with “Crush injuries were created with micro mosquito forceps (Fine Science Tools, No. 13010-12).” left out
# as §2
# as §3, with “(KEYENCE).” for “(KEYENCE). Image analysis was performed using Image J (Schneider et al., 2012).”
# (§4) In β3 tubulin-immunostained images of longitudinal sciatic nerve sections, vertical lines were set at 5 mm intervals in the direction distal to the injury site, and the number of axons crossing each line was divided by the length of the line to calculate axon density. The axonal regeneration percentage was calculated by dividing the axon density at each location by the axon density at uninjured site 1.5 mm proximal to the injury site.
# Crush injuries were created in the sciatic nerve of rats. […] […] Seven days after injury creation, the sciatic nerves were collected, and immunohistochemical staining of their longitudinal sections was performed to calculate the axonal regeneration percentage.
# [3] = test system: sciatic nerve crush injury; assay: Collagen sheet covering 5 mm to 25 mm distal to injury site, evaluation 7 days after crush injury (macrophages, axonal regeneration); settings: placed 2 hours, 7 days after injury, vs control sheet
# Excerpt: as §1, §2, §3, §4
# (§5) Crush injuries were created in the sciatic nerve of rats.
# Crush injuries were created in the sciatic nerve of rats. […] The sheets were removed 12 hours after injury creation and the incisions were closed after washing.
# as §5
smiles,measurement,setting,value
"O=C(O)CC1CC(c2ccc(O)cc2)=NO1 (racemic) [iso-1, (S,R)-3-(4-Hydroxyphenyl)-4,5-dihydro-5-isoxazole acetic acid]",NETs in the epineurium at 20 mm distal to the injury site (CitH3 positive area),"[1]; sheet with 500 μg iso-1 in 50 μl 1% DMSO, placed 2 hours, 12 hours after injury, FIG. 32",only a small amount of NETs were detected
same,macrophage accumulation at 5 mm distal to the injury site (no sheet treatment there),"[1]; sheet with 500 μg iso-1 in 50 μl 1% DMSO, placed 2 hours, 12 hours after injury, vs control sheet, FIG. 30",no difference in macrophage accumulation
same,macrophages accumulated in the nerve parenchyma at 20 mm distal to the injury site (sheet-treated),"[1]; sheet with 500 μg iso-1 in 50 μl 1% DMSO, placed 2 hours, 12 hours after injury, vs control sheet, FIG. 31",more macrophages accumulated in the nerve parenchyma
same,axonal regeneration percentage,[2],higher axonal regeneration percentage
same,longest axon length,[2],greater longest axon length
same,axonal regeneration percentage,"[3]; sheet with 1000 μg iso-1 in 100 μl 1% DMSO, over almost the entire evaluated regions, n=3, FIG. 35",higher axonal regeneration percentage
same,accumulation of macrophages in the nerve parenchyma (CD68; M2 macrophages CD163),"[3]; sheet with 1000 μg iso-1 in 100 μl 1% DMSO, over the entire evaluated regions, n=3, FIG. 33, 34",greater accumulation of macrophages in the nerve parenchyma
"c1cc(CN2CCCNCCNCCCNCC2)ccc1CN1CCCNCCNCCCNCC1 [AMD3100, 1,4-Bis[(1,4,8,11-tetraazacyclotetradecan-1-yl)methyl]benzene]",NETs in the epineurium (CitH3 positive area),"[1]; sheet with 500 μg AMD3100 in 50 μl PBS, placed 2 hours, 12 hours after injury, FIG. 39",only a small amount of NETs were detected
same,macrophages accumulated in the nerve parenchyma,"[1]; sheet with 500 μg AMD3100 in 50 μl PBS, placed 2 hours, 12 hours after injury, vs control sheet, FIG. 40",more macrophages accumulated in the nerve parenchyma
same,macrophages accumulated in the nerve parenchyma,"[3]; sheet with 1 mg AMD3100 in 100 μl PBS, over almost the entire evaluated regions, n=1, FIG. 42",more macrophages accumulated in the nerve parenchyma
same,axonal regeneration percentage,"[3]; sheet with 1 mg AMD3100 in 100 μl PBS, n=1, FIG. 41",higher axonal regeneration percentage
O=C(CC1CC(c2ccc(F)cc2F)=NO1)N1CCOCC1 (stereo not drawn) [CPSI-1306],axonal regeneration percentage,[2],higher axonal regeneration percentage
same,longest axon length,[2],greater longest axon length
"N=C(CCl)NCCC[C@H](NC(=O)c1ccccc1)C(N)=O.O=C(O)C(F)(F)F [Cl-amidine, N^2-Benzoyl-N^5-(1-imino-2-chloroethyl)-L-ornithinamide trifluoroacetic acid]",NETs in the epineurium (CitH3 positive area),"[1]; sheet with 0.3 mg Cl-amidine or 200 U DNase I in 50 μl PBS, placed 2 hours from 10 hours after injury, 12 hours, vs control sheet (large amount), FIG. 25",only a small amount of NETs were detected
same,macrophages accumulated in the nerve parenchyma,"[1]; sheet with 0.3 mg Cl-amidine or 200 U DNase I, placed 2 hours, 12 hours, CD68, vs control sheet, FIG. 26",more macrophages accumulated in the nerve parenchyma

# Source: US20250074976A1, “PHARMACEUTICAL COMPOSITION FOR TREATING PERIPHERAL NERVE INJURY” (NATIONAL UNIVERSITY CORPORATION HOKKAIDO UNIVERSITY, priority 2021, published 2025)
